# From US20160130259A1, “SUBSTITUTED BENZOFURAN COMPOUNDS AND METHODS OF USE THEREOF FOR THE TREATMENT OF VIRAL DISEASES” (priority 2013, published 2016)
# Tests used:
# HCV replicon genotype 1b = assay: HCV replicon assay, genotype 1b (cell ELISA for NS3/4A); assay type: cell-based; settings: Hepatitis C virus, 96 h, read-out: 1b IC50 (nM)
# Protocol: (§1) Measurement of inhibition by compounds was performed using the HCV replicon system. Several different replicons encoding different HCV genotypes or mutations were used. In addition, potency measurements were made using different formats of the replicon assay, including different ways of measurements and different plating formats. See Jan M. Vrolijk et al., A replicons-based bioassay for the measurement of interferons in patients with chronic hepatitis C, 110 J. Virological Methods 201 (2003); Steven S. Carroll et al., Inhibition of Hepatitis C Virus RNA Replication by 2′-Modified Nucleoside Analogs, 278(14) J. Biological Chemistry 11979 (2003). However, the underlying principles are common to all of these determinations, and are outlined below.
# (§2) Stable neomycin phosphotransferase encoding replicons-harboring cell lines were used, so all cell lines were maintained under G418 selection prior to the assay. Potency was determined using a cell ELISA assay with an antibody to the replicons encoded NS3/4a protease. See Caterina Trozzi et al., In Vitro Selection and Characterization of Hepatitis C Virus Serine Protease Variants Resistant to an Active-Site Peptide Inhibitor, 77(6) J. Virol. 3669 (2003). To initiate an assay, replicon cells were plated in the presence of a dilution series of test compound in the absence of G418. Typically, the assays were performed in a 96-well plate formate for manual operation, or a 384-well plate format for automated assay. Replicon cells and compound were incubated for 96 hours. At the end of the assay, cells were washed free of media and compound, and the cells were then lysed. RNA was quantified indirectly through detection of replicon-encoded NS3/4A protein levels, through an ELISA-based assay with an antibody specific for NS3/4A. IC50 determinations were calculated as a percentage of a DMSO control by fitting the data to a four-parameter fit function and the data obtained is provided in the table below.
# (§3) Data for selected compounds of the present invention was obtained for genotypes 1a and 1b using this method and is provided in the table below: […]
# HCV replicon genotype 1a = assay: HCV replicon assay, genotype 1a (cell ELISA for NS3/4A); assay type: cell-based; settings: Hepatitis C virus, 96 h, read-out: 1a IC50 (nM)
# Protocol: as §1, §2, §3
SMILES,IC50 (HCV replicon genotype 1b) [nM],IC50 (HCV replicon genotype 1a) [nM]
"CNC(=O)c1c(-c2ccc(F)cc2)oc2cc(N(C)S(C)(=O)=O)c(-c3cc(-c4cc5c(C#N)cccc5[nH]4)c(=O)n(C)n3)cc12 [Compound 14, 5-(5-(4-cyano-1H-indol-2-yl)-1-methyl-6-oxo-1,6-dihydropyridazin-3-yl)-2-(4-fluorophenyl)-N-methyl-6-(N-methylmethylsulfonamido) benzofuran-3-carboxamide]",4.43,3.55
"CNC(=O)c1c(-c2ccc(F)cc2)oc2cc(N(C)S(C)(=O)=O)c(-c3cc(-c4cc5c(F)cccc5n4C)c(=O)n(C)c3)cc12 [Compound 7, 5-(5-(4-fluoro-1-methyl-1H-indol-2-yl)-1-methyl-6-oxo-1,6-dihydropyridin-3-yl)-2-(4-fluorophenyl)-N-methyl-6-(N-methylmethylsulfonamido)benzofuran-3-carboxamide]",1.1,1.55
"CNC(=O)c1c(-c2ccc(F)cc2)oc2cc(N(C)S(C)(=O)=O)c(-c3cc(-c4cc5c(F)cccc5[nH]4)c(=O)n(C)n3)cc12 [Compound 13, 5-(5-(4-fluoro-1H-indol-2-yl)-1-methyl-6-oxo-1,6-dihydropyridazin-3-yl)-2-(4-fluorophenyl)-N-methyl-6-(N-methylmethylsulfonamido)benzofuran-3-carboxamide]",6.59,4.52
"CNC(=O)c1c(-c2ccc(F)cc2)oc2cc(N(C)S(C)(=O)=O)c(-c3cc(-c4cc5c(C#N)cccc5n4CCOC)c(=O)n(C)n3)cc12 [Compound 18, 5-(5-(4-cyano-1-(2-methoxyethyl)-1H-indol-2-yl)-1-methyl-6-oxo-1,6-dihydropyridazin-3-yl)-2-(4-fluorophenyl)-N-methyl-6-(N-methylmethylsulfonamido)benzofuran-3-carboxamide]",5.02,3.15
"CNC(=O)c1c(-c2ccc(F)cc2)oc2cc(N(C)S(C)(=O)=O)c(-c3cc(-c4nc5ncccc5o4)c(=O)n(C)c3)cc12 [Compound 10, 2-(4-fluorophenyl)-N-methyl-5-(1-methyl-5-(oxazolo[4,5-b]pyridin-2-yl)-6-oxo-1,6-dihydropyridin-3-yl)-6-(N-methylmethylsulfonamido) benzofuran-3-carboxamide]",10.1,22.7
"CNC(=O)c1c(-c2ccc(F)cc2)oc2ccc(-n3cc(C(=O)N[C@H](CO)c4ccc(F)cc4)ncc3=O)cc12 [Compound 22, (S)-N-(1-(4-fluorophenyl)-2-hydroxyethyl)-4-(2-(4-fluorophenyl)-3-(methylcarbamoyl)benzofuran-5-yl)-5-oxo-4,5-dihydropyrazine-2-carboxamide]",193,354
"CNC(=O)c1c(-c2ccc(F)cc2)oc2cc(N(C)S(C)(=O)=O)c(-c3cc(-c4cc5c(C#N)cccc5[nH]4)c(=O)n(C)c3)cc12 [Compound 2, 5-(5-(4-cyano-1H-indol-2-yl)-1-methyl-6-oxo-1,6-dihydropyridin-3-yl)-2-(4-fluorophenyl)-N-methyl-6-(N-methylmethylsulfonamido)-benzofuran-3-carboxamide]",2.43,2.47
"CNC(=O)c1c(-c2ccc(F)cc2)oc2ccc(-n3cc(C(=O)NC4(c5ccc(F)cc5)CC4)ncc3=O)cc12 [Compound 24, 4-(2-(4-fluorophenyl)-3-(methylcarbamoyl)benzofuran-5-yl)-N-(1-(4-fluorophenyl)cyclopropyl)-5-oxo-4,5-dihydropyrdzine-2-carboxamide]",35.5,80.8
"CNC(=O)c1c(-c2ccc(F)cc2)oc2cc(N(C)S(C)(=O)=O)c(-c3cc4n(c(=O)c3)CCn3c-4cc4c(F)cccc43)cc12 [Compound 30, 5-(12-fluoro-4-oxo-6,7-dihydro-4H-pyrido[2′,1′:3,4]pyrazino[1,2-a]indol-2-yl)-2-(4-fluorophenyl)-N-methyl-6-(N-methylmethylsulfonamido)benzofuran-3-carboxamide]",19,3.52
"CNC(=O)c1c(-c2ccc(F)cc2)oc2cc(N(C)S(C)(=O)=O)c(-c3cc(-c4cc5ncccc5o4)c(=O)n(C)c3)cc12 [Compound 9, 2-(4-fluorophenyl)-5-(5-(furo[3,2-b]pyridin-2-yl)-1-methyl-6-oxo-1,6-dihydropyridin-3-yl)-N-methyl-6-(N-methylmethylsulfonamido)benzofuran-3-carboxamide]",4.16,13.4
"CNC(=O)c1c(-c2ccc(F)cc2)oc2ccc(-n3cc(C(=O)NC4(c5ccc6cnccc6n5)CC4)ncc3=O)cc12 [Compound 25, N-(1-(1,6-naphthyridin-2-yl)cyclopropyl)-4-(2-(4-fluorophenyl)-3-(methylcarbamoyl)benzofuran-5-yl)-5-oxo-4,5-dihydropyrazine-2-carboxamide]",38.3,72.5
"CNC(=O)c1c(-c2ccc(F)cc2)oc2cc(N(C)S(C)(=O)=O)c(-c3cn(C)c(=O)c(-c4cc5c(F)cccc5[nH]4)n3)cc12 [Compound 20, 5-(6-(4-fluoro-1H-indol-2-yl)-4-methyl-5-oxo-4,5-dihydropyrazin-2-yl)-2-(4-fluorophenyl)-N-methyl-6-(N-methylmethylsulfonamido)benzofuran-3-carboxamide]",5.91,2.9
"CNC(=O)c1c(-c2ccc(F)cc2)oc2cc(N(C)S(C)(=O)=O)c(-c3cc(-c4cc5c(F)cccc5[nH]4)c(=O)n(C)c3)cc12 [Compound 1, 5-(5-(4-fluoro-1H-indol-2-yl)-1-methyl-6-oxo-1,6-dihydropyridin-3-yl)-2-(4-fluorophenyl)-N-methyl-6-(N-methylmethylsulfonamido)benzofuran-3-carboxamide]",3.88,3.62
"CNC(=O)c1c(-c2ccc(F)cc2)oc2cc(N(C)S(C)(=O)=O)c(-c3cc(C(=O)N[C@H](C)c4ccc(F)cc4)c(=O)n(C)c3)cc12 [Compound 27, (R)-5-(2-(4-fluorophenyl)-3-(methylcarbamoyl)-6-(N-methylmethylsulfonamido)benzoturan-5-yl)-N-(1-(4-fluorophenyl)ethyl)-1-methyl-2-oxo-1,2-dihydropyridine-3-carboxamide]",4.47,6.87
"CNC(=O)c1c(-c2ccc(F)cc2)oc2cc(N(C)S(C)(=O)=O)c(-c3cc(-c4cc5c(F)cccc5[nH]4)cn(C)c3=O)cc12 [Compound 11, 5-(5-(4-fluoro-1H-indol-2-yl)-1-methyl-2-oxo-1,2-dihydropyridin-3-yl)-2-(4-fluorophenyl)-N-methyl-6-(N-methylmethylsulfonamido)benzofuran-3-carboxamide]",2.67,3.84
"CNC(=O)c1c(-c2ccc(F)cc2)oc2cc(N(C)S(C)(=O)=O)c(-c3cc(-c4cc5c(F)cccc5n4C)c(=O)n(C)n3)cc12 [Compound 16, 5-(5-(4-fluoro-1-methyl-1H-indol-2-yl)-1-methyl-6-oxo-1,6-dihydropyridazin-3-yl)-2-(4-fluorophenyl)-N-methyl-6-(N-methylmethylsulfonamido)benzofuran-3-carboxamide]",1.38,1.38
"CNC(=O)c1c(-c2ccc(F)cc2)oc2cc(N(C)S(C)(=O)=O)c(-c3cc(-c4cc5c(F)cccc5[nH]4)nn(C)c3=O)cc12 [Compound 19, 5-(6-(4-fluoro-1H-indol-2-yl)-2-methyl-3-oxo-2,3-dihydropyridazin-4-yl)-2-(4-fluorophenyl)-N-methyl-6-(N-methylmethylsulfonamido)benzofuran-3-carboxamide]",3.07,2.48
